Numbering of substitutions follows the chain as printed. Values joined by “and” are separate entries in the source; they are usually repeats but may differ in a detail not shown here. Identical values can stand only once. Like-named read-outs stand apart in the source and are kept apart here.
Experiments:
[1] = molecular target: T1, PotF_Abox_Dist (Escherichia coli, UniProt P31133, A182D/F276W/L348Q/S87Y); test: ITC, PotF_Abox_Dist (S87Y, A182D, L348Q, F276W); format: binding; conditions: 293 K
T1 construct: without the N-terminal signal peptide; made in house; host or cells: E. coli BL21 (DE3)
T1 sequence (P31133 27-370 S87Y/A182D/F276W/L348Q): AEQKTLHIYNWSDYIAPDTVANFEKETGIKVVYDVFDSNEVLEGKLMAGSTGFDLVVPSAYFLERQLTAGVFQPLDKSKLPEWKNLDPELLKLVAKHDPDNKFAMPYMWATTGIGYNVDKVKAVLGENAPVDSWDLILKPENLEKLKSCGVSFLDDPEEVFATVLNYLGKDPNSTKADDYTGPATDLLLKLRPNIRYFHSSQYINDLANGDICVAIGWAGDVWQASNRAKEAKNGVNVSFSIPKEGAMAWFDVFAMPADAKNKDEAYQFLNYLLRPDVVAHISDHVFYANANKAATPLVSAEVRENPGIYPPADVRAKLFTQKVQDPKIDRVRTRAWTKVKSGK
Method: (§1) Ligands were always freshly prepared in the exact same buffer as was used for the size exclusion run. Samples were degassed, and temperature was equilibrated using a degassing station (TA Instruments). About 400 μl protein sample of different concentrations (Table S5) depending on affinity was transferred into the sample cell of a nanoITC (TA Instruments), and 50 μl of about tenfold concentrated ligand solution was loaded into the injection needle. Multiple injection measurements were carried out at 293 K, 300 rpm stirring rate, and 250 s spacings between each 2 μl injection. The heat quantity past injection was determined by integration of the measured peaks. Every protein–ligand combination was measured as biological triplicate. Subtraction of heat of dilution measurements, peak integration, and one site binding fits were done with NanoAnalyze (TA Instruments). Reported errors are the errors between fits of the measured triplicates.

[2] = molecular target: PotF; design: method as in PMID 33406388; conditions: PotF wildtype, cited from earlier work
[3] = molecular target: T2, PotF/D–E39D–F88A–S247D (Escherichia coli, UniProt P31133, A182D/F276W/F88A/L348Q/S38T/S87Y); test: ITC, PotF/D–E39D–F88A–S247D; format: binding; conditions: 293 K; for n: ITC binding stoichiometry; for ΔG / ΔH / −TΔS / Kd: ITC; for Kd: 50 mM Tris pH 8, 300 mM NaCl, biological triplicates
T2 construct: without the N-terminal signal peptide; made in house; host or cells: E. coli BL21 (DE3)
T2 sequence (P31133 27-370 S38T/S87Y/F88A/A182D/F276W/L348Q): T1 sequence (P31133 27-370 S87Y/A182D/F276W/L348Q) with S12T, F62A
Method: as §1

[4] = molecular target: T3, PotF_Abox-A182D (Escherichia coli, UniProt P31133, A182D/F276W); test: ITC, PotF_Abox-A182D (F276W, A182D); format: binding; conditions: for n: ITC binding stoichiometry; for n / Kd / ΔG / ΔH / −TΔS: 293 K, PotF_Abox-A182D; for Kd / ΔG / ΔH / −TΔS: ITC; for Kd: 50 mM Tris pH 8, 300 mM NaCl, biological triplicates
T3 construct: without the N-terminal signal peptide; made in house; host or cells: E. coli BL21 (DE3)
T3 sequence (P31133 27-370 A182D/F276W): T1 sequence (P31133 27-370 S87Y/A182D/F276W/L348Q) with Y61S, Q322L
Method: as §1

[5] = molecular target: T4, PotF_Abox_Prox (Escherichia coli, UniProt P31133, D247S/D39E/F276W/S38T); test: ITC, PotF_Abox_Prox (S38T, D39E, D247S, F276W); format: binding; conditions: 293 K, 50 mM Tris pH 8, 300 mM NaCl, biological triplicates
T4 construct: without the N-terminal signal peptide; made in house; host or cells: E. coli BL21 (DE3)
T4 sequence (P31133 27-370 S38T/D39E/D247S/F276W): T1 sequence (P31133 27-370 S87Y/A182D/F276W/L348Q) with S12T, D13E, Y61S, D156A, D221S, Q322L
Method: as §1

[6] = molecular target: T5, PotF/D–E39D–F88L–S247D (Escherichia coli, UniProt P31133, A182D/F276W/F88L/L348Q/S38T/S87Y); test: ITC, PotF/D–E39D–F88L–S247D; format: binding; conditions: 293 K; for n: ITC binding stoichiometry; for ΔG / ΔH / −TΔS / Kd: ITC; for Kd: 50 mM Tris pH 8, 300 mM NaCl, biological triplicates
T5 construct: without the N-terminal signal peptide; made in house; host or cells: E. coli BL21 (DE3)
T5 sequence (P31133 27-370 S38T/S87Y/F88L/A182D/F276W/L348Q): T1 sequence (P31133 27-370 S87Y/A182D/F276W/L348Q) with S12T, F62L
Method: as §1

[7] = ITC, 50 mM Tris pH 8, 300 mM NaCl, biological triplicates

Row | Structure (SMILES) | Kd ([2]; ITC) | ΔG ([2]; ITC) | ΔH ([2]; ITC) | −TΔS ([2]; ITC) | n [3] | ΔG [3] | ΔH [3] | −TΔS [3] | Kd [3] | n [4] | Kd [4] | ΔG [4] | ΔH [4] | −TΔS [4] | KD [5] | n [6] | ΔG [6] | ΔH [6] | −TΔS [6] | Kd [6] | also measured
1 | NCCCCN [PUT, putrescine] | 0.07 ± 0.04 µM | -9.74 ± 0.40 kcal/mol | -23.02 ± 0.12 kcal/mol | 13.28 ± 0.52 kcal/mol | 0.92 ± 0.04 | -5.23 ± 0.02 kcal/mol | -5.21 ± 0.14 kcal/mol | -0.02 ± 0.15 kcal/mol | 126 ± 5.29 µM | 0.91 ± 0.01 | ~83 µM and 83.2 µM | -5.45 ± 0.02 kcal/mol | -9.79 ± 0.09 kcal/mol | 4.33 ± 0.08 kcal/mol | no binding | 0.90 ± 0.01 | -4.97 ± 0.13 kcal/mol | -5.54 ± 0.73 kcal/mol | 0.57 ± 0.86 kcal/mol | 203 ± 43.1 µM | KD [1, 7]: not detectable; Kd [2]: ~0.068 µM; decrease of PUT affinity ([4]; PotF_Abox-A182D compared with wildtype PotF): around 1200 fold
2 | NCCCCNCCCN [SPD, spermidine] | 29.7 ± 1.15 µM | -6.07 ± 0.02 kcal/mol | -3.65 ± 0.06 kcal/mol | -2.42 ± 0.04 kcal/mol | 0.91 ± 0.01 | -7.82 ± 0.06 kcal/mol | -4.75 ± 0.09 kcal/mol | -3.07 ± 0.14 kcal/mol | 1.48 ± 0.14 µM | 0.91 ± 0.02 | ~3.1 µM and 3.13 µM | -7.39 ± 0.11 kcal/mol | -4.37 ± 0.20 kcal/mol | -3.02 ± 0.15 kcal/mol | very low | 0.93 ± 0.01 | -7.35 ± 0.09 kcal/mol | -4.19 ± 0.06 kcal/mol | -3.17 ± 0.10 kcal/mol | 3.33 ± 0.53 µM | n ([1]; ITC binding stoichiometry): 0.94 ± 0.00; ΔG ([1]; ITC): -6.85 ± 0.02 kcal/mol; ΔH ([1]; ITC): -5.28 ± 0.07 kcal/mol; −TΔS ([1]; ITC): -1.57 ± 0.09 kcal/mol; Kd [1, 7]: ~7.8 µM and 7.8 µM and 7.77 µM

Reference: article PMC8666671, “Fine-tuning spermidine binding modes in the putrescine binding protein PotF” (The Journal of Biological Chemistry, 2021)
